From PubChem BioAssay AID489035 (Sanford-Burnham Center for Chemical Genomics, 2010)
The source made the active and inactive calls. No rule for the calls is given here.

What follows are compounds tested on Jurkat NF-kB reporter, TCR-induced, luciferase luminescence (assay: inhibitors of TCR-driven NF-kB activation, dose response, Jurkat cells, luminescence (AID 489035)).
In the case of `CN[C@H]1CCc2cc(OC)c(OC)c(OC)c2-c2ccc(OC)c(=O)cc21`, the IC50 is reported as > 80 µM (inactive).
Work on `CCCCCCCCn1c2c(c(=N)c3c1CCC3)CCCC2` yielded an IC50 of 4.63 µM.
Compound `COc1ccc(CS(=O)(=O)/C(Cl)=C(/Cl)C(=O)Nc2ccc(OC)nc2)cc1` has an IC50 of 0.45 µM.
`CCC(C)(C)c1ccc(OCCCC[n+]2cccc(C)c2C)c(C(C)(C)CC)c1` gave an IC50 of 4.76 µM.
In the case of `O=C(COc1ccc2c(-c3ccccc3)cc(=O)oc2c1)Nc1cccnc1`, the IC50 is reported as > 80 µM (inactive).
`O=C1C=CCC(/C=C/c2ccccc2)O1` (centres undefined) showed an IC50 of 0.17 µM.
`COc1ccc(/C=N\NC(=O)c2ccccc2F)cc1COc1ccc(F)cc1F` was tested, and the IC50 was > 80 µM (inactive).
In the case of `COC(=O)c1ccc(Oc2cc(C)nc(SC)n2)cc1`, the IC50 is reported as > 80 µM (inactive).
In the case of `CC(Oc1ccc(Cl)cc1Cl)c1nc(-c2ccc(NC(=O)c3ccncc3)cc2)no1` (centres undefined), the IC50 is reported as > 80 µM (inactive).
`COc1cc(C(=O)Nc2ccc3c(c2)ncn3C)cc(OC)c1OC` was tested, and the IC50 was > 80 µM (inactive).
For `Nc1nc(-c2ccccc2)cc(N2CCCCC2)n1`, the IC50 was > 80 µM (inactive).
For `CSc1nc(N(C)NC(=O)c2cccc(C)c2)c2ccccc2n1`, the IC50 was 27.8 µM (inactive).
With `CC(=O)Nc1ccc(S(=O)(=O)N2c3ccccc3C(C)=CC2(C)C)cc1` the IC50 was 24.4 µM (inactive).
With `CCN(CC)c1ccc2nc3ccccc3[n+](CC)c2c1` the IC50 was 12.4 µM.
Compound `O=S1(=O)Nc2c(ccc3cccnc23)-c2ccccc21` has an IC50 of 2.17 µM.
Work on `CCCCC(=O)NC(c1ccc(Cl)cc1Cl)c1ccc2cccnc2c1O` (centres undefined) yielded an IC50 of 9.87 µM.
For `Cc1oc(-c2ccc(Cl)cc2)nc1CS(=O)CC(=O)NCCCN1CCN(Cc2ccccc2)CC1` (centres undefined), the IC50 was 26.4 µM (inactive).
`C=C(C)C(=O)O[C@H]1C/C(C)=C\C(=O)/C=C(\C)[C@H](O)[C@@H]2OC(=O)C(=C)[C@@H]21` showed an IC50 of 2.06 µM.
For `COc1cc([C@@H]2c3cc4c(cc3[C@H](O)[C@H]3COC(=O)[C@H]23)OCO4)cc(OC)c1OC`, the IC50 was > 80 µM (inactive).
Work on `O=C1/C(=C/c2ccc(N3CCOCC3)o2)SC(=Nc2ccccc2)N1CCc1c[nH]c2ccccc12` yielded an IC50 of 18.3 µM.
With `COc1ccc(/C=N/NC(=O)COc2ccccc2-c2ccccc2)cc1` the IC50 was 37.9 µM (inactive).
With `C/C=C(\C)C(=O)N[C@@H](c1ccccc1)[C@@H](O)C(=O)O[C@H]1C[C@@]2(O)[C@@H](OC(=O)c3ccccc3)C3[C@](C)(C(=O)[C@H](OC(C)=O)C(=C1C)C2(C)C)[C@H](O)C[C@H]1OC[C@@]31OC(C)=O` (some centres undefined) the IC50 was less than 0.16 µM.
For `CCCCN1/C(=C/c2ccc3ccccc3[n+]2CC)Sc2ccccc21`, the IC50 was > 80 µM (inactive).
`CC(C)(C)c1ccc(C(=O)Nc2ccc(Oc3cccnc3)nc2)cc1` was tested, and the IC50 was > 80 µM (inactive).
In the case of `Cc1ccc(COC(=O)c2cc([N+](=O)[O-])ccc2N2CCOCC2)cc1`, the IC50 is reported as 49 µM (inactive).
With `CCc1ccc(/C=N/NC(=O)c2cc(-c3ccncc3)nc3ccccc23)s1` the IC50 was > 80 µM (inactive).
With `COc1ccc(Nc2cc(C)nc(-n3nc(C)cc3C)n2)cc1` the IC50 was > 80 µM (inactive).
`CC(C)(C)c1nnc(N/N=C/c2ccccc2O)n(N)c1=O` was tested, and the IC50 was 12.2 µM.
For `Cc1ccc(S(=O)(=O)NCc2ccncc2)cc1C`, the IC50 was > 80 µM (inactive).
With `COc1ccccc1C1=NOC(COc2ccc3c(C)cc(=O)oc3c2)C1` (centres undefined) the IC50 was > 80 µM (inactive).
In the case of `O=C(c1ccccc1)c1cc([N+](=O)[O-])ccc1N1CCOCC1`, the IC50 is reported as > 80 µM (inactive).
`Cc1ccc(N/C(N)=N/c2nc(CSc3nnc(C)s3)cc(=O)[nH]2)c(C)c1` was tested, and the IC50 was 42.1 µM (inactive).
With `CCOCCOC(=O)c1[nH]c2c(c1C)C(=O)CC(c1cccs1)C2` (centres undefined) the IC50 was > 80 µM (inactive).
Work on `CCSc1nc2ccccc2n1C(=O)/C=C\c1ccc(OC)c(OC)c1` yielded an IC50 of 2.27 µM.
For `CC(=O)c1c(C)[nH]c(C(=O)OCC(=O)Nc2ccc(C)cc2[N+](=O)[O-])c1C`, the IC50 was > 80 µM (inactive).
`CC(=O)Nc1ccc(S(=O)(=O)N2CCSc3ccccc32)cc1` was tested, and the IC50 was > 80 µM (inactive).
`CCN1/C(=C/c2ccc3ccccc3[n+]2CC)C=Cc2ccccc21` gave an IC50 of 11.2 µM.
Work on `Cc1ccc(N2C(=O)c3cccc4c(N)ccc(c34)C2=O)c2cccnc12` yielded an IC50 of less than 0.16 µM.
For `CC1CCCN(c2ncnc3c2cnn3-c2ccc(Cl)cc2)C1` (centres undefined), the IC50 was 10.5 µM.
In the case of `N#Cc1ccc(-c2cccs2)nc1SCc1cccnc1`, the IC50 is reported as > 80 µM (inactive).
`CCC1CCCCN1C(=O)c1cc(COc2ccc3ncccc3c2)on1` (centres undefined) was tested, and the IC50 was > 80 µM (inactive).
`Cc1ccc(C(=O)N/N=C/c2ccc([N+](=O)[O-])s2)cc1` was tested, and the IC50 was 1.26 µM.
Work on `COc1ccc(OC)c(CCNC(=O)Cn2nc(C)c3c(C)n(-c4ccc(C)cc4)nc3c2=O)c1` yielded an IC50 of 7.63 µM.
With `O=[N+]([O-])c1nn(-c2ccc3c(c2)OCCO3)n(O)c1=Nc1ccccc1` the IC50 was 1.05 µM.
`O=C(Nc1ccc(Cc2ccncc2)cc1)c1ccc(S(=O)(=O)N2CCCC2)cc1` was tested, and the IC50 was 77.4 µM (inactive).
`Cc1ccc(NC(=O)Nc2ccnc(-c3cccnc3)n2)cc1` showed an IC50 of 0.84 µM.
Work on `Cc1ccc2oc(/N=C(\N)NC(=O)C(C)(C)C)nc2c1` yielded an IC50 of 6.68 µM.
In the case of `COc1cc([C@@H]2c3cc4c(cc3[C@@H](OC)[C@H]3COC(=O)[C@H]23)OCO4)cc(OC)c1O`, the IC50 is reported as > 80 µM (inactive).
In the case of `Cc1ccc(/C=N/NC(=O)c2c(C)nc3ccc(Br)cn23)cc1`, the IC50 is reported as > 80 µM (inactive).
